Reference: patent US20230382924A1, “MODULATORS OF CYSTIC FIBROSIS TRANSMEMBRANE CONDUCTANCE REGULATOR” (VERTEX PHARMACEUTICALS INCORPORATED, priority 2020, published 2023)
Read-outs that look alike come from different tables or passages of the source.

Tests used:
CFTR = biological target: T1, CFTR (Homo sapiens, UniProt P13569, DEL508-508); test: HBE assay: Ussing chamber assay of CFTR-mediated short-circuit currents in F508del/MF-HBE cells; type: cell-based; details: 20% human serum; for EC50: range of concentrations in combination with 1 μM Ivacaftor, 18-24 hours at 37° C.; for HBE Activity at 10 μM (%): single fixed concentration of 10 μM with 1 μM Ivacaftor; for HBE Activity at 10 μM (%) / Emax: 18-24 hours, compared to known Vertex corrector with 18 μM Tezacaftor and 1 μM Ivacaftor; for Emax: with 1 μM Ivacaftor, read-out: HBE Max Activity (%)
T1 construct: endogenous in cells; host or cells: primary human bronchial epithelial cells from CF subjects (F508del/MF)
Protocol: 1. Ussing Chamber Assay of CFTR-Mediated Short-Circuit Currents
Ussing chamber experiments were performed using human bronchial epithelial (HBE) cells derived from CF subjects heterozygous for F508del and a minimal function CFTR mutation (F508del/MF-HBE) and cultured as previously described (Neuberger T, Burton B, Clark H, Van Goor F Methods Mol Biol 2011:741:39-54). After four days the apical media was removed, and the cells were grown at an air liquid interface for >14 days prior to use.
To isolate the CFTR-mediated short-circuit (Isc) current, F508del/MF-HBE grown on Costar® Snapwell™ cell culture inserts were mounted in an Ussing chamber and the transepithelial Isc was measured under voltage-clamp recording conditions (Vhold=0 mV) at 37° C. The basolateral solution contained (in mM) 145 NaCl, 0.83 K2HPO4, 3.3 KH2P04, 1.2 MgCl2, 1.2 CaCl2), 10 Glucose, 10 HEPES (pH adjusted to 7.4 with NaOH) and the apical solution contained (in mM) 145 NaGluconate, 1.2 MgCl2, 1.2 CaCl2), 10 glucose, 10 HEPES (pH adjusted to 7.4 with NaOH) and 30 μM amiloride to block the epithelial sodium channel. Forskolin (20 μM) was added to the apical surface to activate CFTR, followed by apical addition of a CFTR inhibitor cocktail consisting of BPO, GlyH-101, and CFTR inhibitor 172 (each at 20 μM final assay concentration) to specifically isolate CFTR currents. The CFTR-mediated Isc (ρA/cm^2) for each condition was determined from the peak forskolin response to the steady-state current following inhibition.
2. Identification of Corrector Compounds
The activity of the CFTR corrector compounds on the CFTR-mediated Isc was determined in Ussing chamber studies as described above. The F508del/MF-HBE cell cultures were either incubated with the corrector compounds at a range of concentrations in combination with 1 μM Ivacaftor or were incubated with the corrector compounds at a single fixed concentration of 10 μM in combination with 1 μM Ivacaftor for 18-24 hours at 37° C. and in the presence of 20% human serum. The concentration of corrector compounds with 1 μM Ivacaftor during the 18-24 hours incubations was kept constant throughout the Ussing chamber measurement of the CFTR-mediated Isc to ensure compounds were present throughout the entire experiment.

[1] = amide bond, 13-membered ring, DMF, 25.0 °C

T1 sequence (P13569 with tags, fused parts or gaps DEL508-508): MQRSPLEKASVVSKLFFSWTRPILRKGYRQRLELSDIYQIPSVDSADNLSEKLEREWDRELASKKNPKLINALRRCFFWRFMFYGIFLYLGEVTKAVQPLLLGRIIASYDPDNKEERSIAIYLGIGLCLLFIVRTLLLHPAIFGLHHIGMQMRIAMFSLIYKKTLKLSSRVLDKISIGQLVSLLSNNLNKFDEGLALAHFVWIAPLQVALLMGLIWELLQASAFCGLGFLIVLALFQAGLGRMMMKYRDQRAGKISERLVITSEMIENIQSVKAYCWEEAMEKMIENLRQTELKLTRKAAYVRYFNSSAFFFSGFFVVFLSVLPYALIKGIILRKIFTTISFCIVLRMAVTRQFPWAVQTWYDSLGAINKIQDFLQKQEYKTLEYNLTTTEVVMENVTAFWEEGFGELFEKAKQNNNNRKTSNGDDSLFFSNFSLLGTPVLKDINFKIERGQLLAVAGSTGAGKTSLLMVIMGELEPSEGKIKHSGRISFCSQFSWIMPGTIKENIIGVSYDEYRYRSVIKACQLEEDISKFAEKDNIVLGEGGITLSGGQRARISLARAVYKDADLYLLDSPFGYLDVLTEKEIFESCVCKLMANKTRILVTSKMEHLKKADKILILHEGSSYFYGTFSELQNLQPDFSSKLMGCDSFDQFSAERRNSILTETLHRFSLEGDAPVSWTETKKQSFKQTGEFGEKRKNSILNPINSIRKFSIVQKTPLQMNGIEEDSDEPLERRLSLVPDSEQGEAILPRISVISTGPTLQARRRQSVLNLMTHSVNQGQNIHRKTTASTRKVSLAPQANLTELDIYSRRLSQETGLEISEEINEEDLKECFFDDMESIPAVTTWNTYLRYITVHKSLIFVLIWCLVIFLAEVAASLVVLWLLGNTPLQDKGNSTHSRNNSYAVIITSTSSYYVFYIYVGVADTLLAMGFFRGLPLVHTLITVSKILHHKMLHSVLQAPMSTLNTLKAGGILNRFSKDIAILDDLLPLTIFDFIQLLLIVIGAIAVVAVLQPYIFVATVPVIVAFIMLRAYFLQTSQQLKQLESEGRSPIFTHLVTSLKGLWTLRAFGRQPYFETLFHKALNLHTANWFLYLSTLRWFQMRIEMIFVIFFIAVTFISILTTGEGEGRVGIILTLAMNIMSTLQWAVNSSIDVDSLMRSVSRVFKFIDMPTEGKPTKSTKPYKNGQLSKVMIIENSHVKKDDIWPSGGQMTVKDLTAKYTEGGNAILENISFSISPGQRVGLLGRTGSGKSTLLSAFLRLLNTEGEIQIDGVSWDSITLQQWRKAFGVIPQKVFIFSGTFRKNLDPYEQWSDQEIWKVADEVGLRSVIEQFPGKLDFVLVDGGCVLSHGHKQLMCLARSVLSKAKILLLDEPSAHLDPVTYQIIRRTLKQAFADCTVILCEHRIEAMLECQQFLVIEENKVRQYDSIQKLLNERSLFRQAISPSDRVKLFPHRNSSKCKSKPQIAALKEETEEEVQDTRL

Row | Compound | EC50 (CFTR) | Emax (CFTR) | further results
1 | Cc1cccc(C)c1-c1cc2nc(n1)NS(=O)(=O)c1cccc(c1)C(=O)NC(C(CC(C)C)c1cccc(C(C)(C)C)c1)CO2 (stereo not shown) [Compound 209] | < 1 µM |  | 
2 | Cc1cccc(C)c1-c1cc2nc(n1)NS(=O)(=O)c1cccc(c1)C(=O)N[C@H](CC1CC3(CCC3)C1)CO2 [Compound 49, (11R)-6-(2,6-Dimethylphenyl)-2,2-dioxo-11-(spiro[3.3]heptan-2-ylmethyl)-9-oxa-2λ^6-thia-3,5,12,19-tetrazatricyclo[12.3.1.14,8]nonadeca-1(18),4(19),5,7,14,16-hexaen-13-one] |  |  | ring closure, yield after HPLC ([1]; from Cc1cccc(C)c1-c1cc(OC[C@H](N)CC2CC3(CCC3)C2)nc(NS(=O)(=O)c2cccc(C(=O)O)c2)n1, CDMT/NMM, 32.4 mM, 1.5 h): 49%; HBE Activity at 10 μM (%) (CFTR): +++ (+++ is >60%)
3 | Cc1cccc(CC2CCCCC2)c1-c1cc2nc(n1)NS(=O)(=O)c1cccc(c1)C(=O)N[C@H](CC(C)(C)C)CO2 [Compound 299] | < 1 µM | > 60% | 
4 | Cc1cccc(C)c1-c1cc2nc(n1)NS(=O)(=O)c1cccc(c1)C(=O)N[C@@H](CC(C)(C)C)CO2 [Compound 121] |  |  | HBE Activity at 10 μM (%) (CFTR): + (+ is <30%)
5 | CC(C)C[C@@H]1COc2cc(Cl)nc(n2)NS(=O)(=O)c2cccc(c2)C(=O)N1 |  |  | ring closure, isolated yield (from CC(C)C[C@@H](N)COc1cc(Cl)nc(NS(=O)(=O)c2cccc(C(=O)O)c2)n1, amide bond, 13-membered ring, HATU/Et3N, DMF, 29.1 mM, -5.0 °C, 0.17 h): 30%
6 | O=S1(=O)Nc2nc(Cl)cc(n2)-c2ccccc2CCCNc2cccc1c2 |  |  | ring closure, isolated yield (from CC1(C)OB(c2ccccc2CCCNc2cccc(S(=O)(=O)Nc3nc(Cl)cc(Cl)n3)c2)OC1(C)C, cc_pd bond, 14-membered ring, Pd(PPh3)4/K2CO3, 1,4-dioxane/water, 11.2 mM, 90.0 °C, 5.0 h): 19%
7 | Cc1cccc(C)c1-c1cc2nc(n1)NS(=O)(=O)c1cccc(c1)C(=O)NC(C1CC3(CCC3)C1)CO2 (stereo not shown) [Compound 50, 6-(2,6-Dimethylphenyl)-2,2-dioxo-11-spiro[3.3]heptan-2-yl-9-oxa-2λ^6-thia-3,5,12,19-tetrazatricyclo[12.3.1.14,8]nonadeca-1(18),4(19),5,7,14,16-hexaen-13-one] | < 1 µM | > 60% | ring closure, yield after HPLC ([1]; from Cc1cccc(C)c1-c1cc(OCC(N)C2CC3(CCC3)C2)nc(NS(=O)(=O)c2cccc(C(=O)O)c2)n1, CDMT/NMM, 46.6 mM, 1.5 h): 25%
8 | Cc1cccc(C)c1-c1cc2nc(n1)NS(=O)(=O)c1cccc(c1)C(=O)NC(C(CC(C)C)c1ccc(C(C)(C)C)cc1)CO2 (stereo not shown) [Compound 208] |  |  | HBE Activity at 10 μM (%) (CFTR): +++ (+++ is >60%)
9 | Cc1cccc(C)c1-c1cc2nc(n1)NS(=O)(=O)c1cccc(c1)C(=O)NC(C(CC(C)C)c1ccc(C(C)(C)C)cc1)CO2 (stereo not shown) [Compound 207] |  |  | HBE Activity at 10 μM (%) (CFTR): + (+ is <30%)
10 | Cc1cccc(C)c1-c1cc2nc(n1)NS(=O)(=O)c1cccc(c1)C(=O)NC(C(CC(C)C)c1ccc(C(C)(C)C)cc1)CO2 (stereo not shown) [Compound 210] | < 1 µM | 30 to 60% | 
11 | Cc1cccc(C)c1-c1cc2nc(n1)NS(=O)(=O)c1cccc(c1)C(=O)NCC(c1ccc(C3(C(F)(F)F)CC3)cc1)O2 (stereo not shown) |  |  | ring closure, isolated yield (from Cc1cccc(C)c1-c1cc(OC(CN)c2ccc(C3(C(F)(F)F)CC3)cc2)nc(NS(=O)(=O)c2cccc(C(=O)O)c2)n1, amide bond, 13-membered ring, HATU/NaOtBu, THF/DMF, 67.1 mM, 25.0 °C, 0.75 h, 2 steps): 26%
12 | Cc1ccc(C)c(-c2cc3nc(n2)NS(=O)(=O)c2cccc(c2)C(=O)N[C@H](CC(C)(C)C)CO3)c1C [Compound 51, (11R)-11-(2,2-Dimethylpropyl)-6-(2,3,6-trimethylphenyl)-9-oxa-2λ^6-thia-3,5,12,19-tetraazatricyclo[12.3.1.14,8]nonadeca-1(18),4,6,8(19),14,16-hexaene-2,2,13-trione] | < 1 µM | > 60% | ring closure, yield after HPLC ([1]; from Cc1ccc(C)c(-c2cc(OC[C@H](N)CC(C)(C)C)nc(NS(=O)(=O)c3cccc(C(=O)O)c3)n2)c1C, CDMT/NMM, 23.7 mM, 16.0 h): 31%
13 | Cc1ccc2ccccc2c1-c1cc2nc(n1)NS(=O)(=O)c1cccc(c1)C(=O)N[C@H](CC(C)(C)C)CO2 [Compound 52, (11R)-11-(2,2-Dimethylpropyl)-6-(2-methyl-1-naphthyl)-2,2-dioxo-9-oxa-2λ^6-thia-3,5,12,19-tetrazatricyclo[12.3.1.14,8]nonadeca-1(18),4(19),5,7,14,16-hexaen-13-one] | < 1 µM | > 60% | ring closure, yield after HPLC ([1]; from Cc1ccc2ccccc2c1-c1cc(OC[C@H](N)CC(C)(C)C)nc(NS(=O)(=O)c2cccc(C(=O)O)c2)n1, HATU/TEA, 44.8 mM, 2.0 h): 25%
14 | Cc1cccc(C)c1-c1cc2nc(n1)NS(=O)(=O)c1cccc(c1)C(=O)NC(C(CC(C)C)c1cccc(C(C)(C)C)c1)CO2 (stereo not shown) [Compound 211] | < 1 µM | > 60% | 
15 | COCN1c2nc3cc(n2)-c2ccccc2/C=C/CCCCCC[C@H](CO3)NC(=O)c2cccc(c2)S1(=O)=O |  |  | ring closure, isolated yield (from C=CCCCCCC[C@@H]1COc2cc(-c3ccccc3C=C)nc(n2)N(COC)S(=O)(=O)c2cccc(c2)C(=O)N1, rcm bond, 16-membered ring, Grubbs II, toluene, 16.4 mM, 100.0 °C, 1.5 h): 80%
